Laboratory results as given in US20260226068A1, “IMIDAZOTRIAZINE IL-17A MODULATORS AND USES THEREOF” (DICE ALPHA, INC., priority 2023, published 2026).

How the values were obtained:
[1] = target: T1, IL-17A/A (Homo sapiens, UniProt Q16552); experiment: IL-17A/A HEK-Blue cell assay (SEAP reporter); assay type: cell-based; conditions: HEK-Blue IL-17A reporter cells, IL17A/A 5 ng/mL, 20 hours, SEAP read at A630; read-out: HEK-Blue IL17AA (IC50 for IL-17A/A inhibition)
T1 construct: purchased Genscript Z03228
T1 sequence (Q16552 24-155): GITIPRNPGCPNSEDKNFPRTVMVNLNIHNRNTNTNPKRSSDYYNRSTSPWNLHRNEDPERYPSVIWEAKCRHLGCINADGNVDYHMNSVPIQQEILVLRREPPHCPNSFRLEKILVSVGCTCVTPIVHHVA

[2] = target: T2, IL-17A/F (Homo sapiens, UniProt Q16552+Q96PD4); experiment: IL-17A/F HEK-Blue cell assay (SEAP reporter); assay type: cell-based; conditions: HEK-Blue IL-17A reporter cells, IL17A/F 5 ng/mL, 20 hours, SEAP read at A630; read-out: HEK-Blue IL17AF (IC50 for IL-17A/F inhibition)
T2 construct: purchased R&D Systems
T2 sequence (Q16552 24-155): T1 sequence (Q16552 24-155)
T2 sequence (Q96PD4 31-163): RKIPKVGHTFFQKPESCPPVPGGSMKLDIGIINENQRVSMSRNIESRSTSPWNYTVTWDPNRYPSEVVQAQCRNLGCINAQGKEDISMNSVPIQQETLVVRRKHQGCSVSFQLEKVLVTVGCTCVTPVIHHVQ

[3] = Mouse oral bioavailability; assay type: in vivo; conditions: C57BL/6J mice, PO 10 mg/kg vs IV 1 mg/kg, plasma AUC, read-out: % F (Mouse), oral bioavailability
Experimental: The test compound is administered to C57BL/6J mice intravenously (IV) at 1 mg/kg or orally (PO) at 10 mg/kg using vehicles composed of 10% DMA, 70% Polyethylene glycol 400, and 20% purified water; or 10% DMA, 50% Polyethylene glycol 400, and 40% purified water. Serial blood collections occur at 0.08, 0.25, 0.5, 1, 2, 4, 8 and 24 h post IV bolus dose administration, and 0.25, 0.5, 1, 2, 4, 8 and 24 h post oral dose administration. Blood samples are treated with EDTA anticoagulant. Plasma is isolated by centrifugation and stored at −70° C. until analysis by LC-MS/MS. Test article concentration is determined in plasma and uploaded into the Phoenix WinNonlin system where noncompartmental analysis is used to calculate Area Under the Curve (AUC) for both IV and PO arms. Bioavailability (% F) is calculated via the following equation,
% F=(AUCPO×DoseIV)/(AUCIV×DosePO)×100

Row | IC50 [1] [nM] | IC50 [2] [nM] | bioavailability [3] [%] | Compound
1 | < 100 | > 1000 | 87 | O=C(N[C@H](c1cn2nc(CC3C[C@@H](C(F)(F)F)CNC3=O)c(N3CCOCC3)nc2n1)C1CCC(F)(F)CC1)c1nonc1C1CC1 (stereo partly drawn) [Compound 56]
2 | < 100 | 100 to 1000 | 69 | CCn1nccc1C(=O)N[C@H](c1cn2nc(C[C@H]3C[C@@H](C(F)(F)F)CNC3=O)c(C3CCOCC3)nc2n1)C1CCC(F)(F)CC1 [Compound 88, N-((1S)-(4,4-difluorocyclohexyl)(2-(((3R,5R)-2-oxo-5-(trifluoromethyl)piperidin-3-yl)methyl)-3-(tetrahydro-2H-pyran-4-yl)imidazo[1,2-b][1,2,4]triazin-6-yl)methyl)-1-ethyl-1H-pyrazole-5-carboxamide]
3 | < 100 | > 1000 | 91 | Cc1nonc1C(=O)N[C@H](c1cn2nc(C[C@H]3C[C@@H](C(F)(F)F)CNC3=O)c(C3CCOCC3)nc2n1)C1CCC(F)(F)CC1 [Compound 148, N-((1S)-(4,4-difluorocyclohexyl)(2-(((3R,5R)-2-oxo-5-(trifluoromethyl)piperidin-3-yl)methyl)-3-(tetrahydro-2H-pyran-4-yl)imidazo[1,2-b][1,2,4]triazin-6-yl)methyl)-4-methyl-1,2,5-oxadiazole-3-carboxamide]

Continued, compound first:

Row | Compound | IC50 [1] [nM] | IC50 [2] [nM] | bioavailability [3] [%]
4 | CCn1nccc1C(=O)N[C@H](c1cn2nc(C[C@H]3C[C@@H](C(F)(F)F)CNC3=O)c(C3CC4CCC(C3)O4)nc2n1)C1CCC(F)(F)CC1 (stereo partly drawn) [Compound 153, N-((1S)-(3-(8-oxabicyclo[3.2.1]octan-3-yl)-2-(((3R,5R)-2-oxo-5-(trifluoromethyl)piperidin-3-yl)methyl)imidazo[1,2-b][1,2,4]triazin-6-yl)(4,4-difluorocyclohexyl)methyl)-1-ethyl-1H-pyrazole-5-carboxamide] | < 100 | 100 to 1000 | 43
5 | CC(C)n1ncnc1C(=O)N[C@H](c1cn2nc(C[C@H]3C[C@@H](C(F)(F)F)CNC3=O)c(C3CCOCC3)nc2n1)C1CCC(F)(F)CC1 [Compound 229] | < 100 | > 1000 | 83
